Data reported in article PMC10584170, “Machine learning-based phenotypic imaging to characterise the targetable biology of Plasmodium falciparum male gametocytes for the development of transmission-blocking antimalarials” (PLOS Pathogens, 2023).
Like-named read-outs stand apart in the source and are kept apart here.

What was measured:
[1] = system: P. falciparum male gametocytes; experiment: P. falciparum Dual Gamete Formation Assay (PfDGFA), male readout (exflagellation); format: cell-based, Plasmodium falciparum NF54; conditions: for Selectivity Ratio M: HepG2 Tox50 versus male IC50; for IC50: read-out: Male IC50; for HitlevelM: number of replicates with >50% inhibition in the male readout
Outline: (§1)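 Male and female gamete formation were quantified by microscopy image analysis following 24 h incubation of mature NF54 gametocytes with compound and activation at 28°C with xanthurenic acid.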

[2] = system: P. falciparum female gametocytes; experiment: P. falciparum Dual Gamete Formation Assay (PfDGFA), female readout (Pfs25-positive female gametes); format: cell-based, Plasmodium falciparum NF54; conditions: for Selectivity ratio F: HepG2 Tox50 versus female IC50; for IC50: read-out: Female IC50; for HitlevelF: number of replicates with >50% inhibition in the female readout
Outline: as §1

HepG2 cells = experiment: HepG2 cytotoxicity counter-screen; conditions: cytotoxic activity against HepG2 cells
[3] = PfDGFA at 2µM, 24h preincubation with gametocytes, average of replicates
[4] = PfDGFA at 2µM, 24h preincubation with gametocytes, replicate R1
[5] = PfDGFA at 2µM, 24h preincubation with gametocytes, replicate R3
[6] = PfDGFA at 2µM, 24h preincubation with gametocytes, replicate R4
[7] = PfDGFA, 24 h incubation with gametocytes before induction, exflagellation readout
[8] = PfDGFA, 24 h incubation with gametocytes before induction, female gamete readout
[9] = 2µM, 24h preincubation with gametocytes prior to induction of gametogenesis, average of replicates
[10] = 2µM, 24h preincubation with gametocytes prior to induction of gametogenesis, replicate R1
[11] = 2µM, 24h preincubation with gametocytes prior to induction of gametogenesis, replicate R3
[12] = 2µM, 24h preincubation with gametocytes prior to induction of gametogenesis, replicate R4

IC50 [1, 7] [nM] | IC50 [2, 8] [nM] | Compound | Selectivity Ratio M [1] | HitlevelM ([1]; 2µM) | Selectivity ratio F [2] | HitlevelF ([2]; 2µM) | Tox50 (HepG2 cells) [µM] | Average inhibition male (%) [1, 3] [%] | % inhibition male (individual replicates) R1 [1, 4] [%] | % inhibition male (individual replicates) R3 [1, 5] [%] | % inhibition male (individual replicates) R4 [1, 6] [%] | Average inhibition female (%) [2, 3] [%] | % inhibition female (individual replicates) R1 [2, 4] [%] | % inhibition female (individual replicates) R3 [2, 5] [%] | % inhibition female (individual replicates) R4 [2, 6] [%] | also measured
1380 | 4400 | CCc1c(CCNCCCCCCNC(C)(C)Cc2ccc3c(c2CC)OCO3)ccc(OC)c1OC.Cl [TCMDC-132055] | 2.57 | 4 | 0.81 | 1 | 3.55 | 75.9 | 71.0 | 61.7 | 83.6 | 27.4 | 20.6 | -1.3 | 28.0 | –
1950 | 5380 | CCc1c(CCNCCCC(C)CCNCCc2ccc(OC)c(OC)c2CC)ccc(OC)c1OC.Cl (centres unmarked) [TCMDC-132065] | 2.01 | – | 0.73 | – | 3.92 | – | – | – | – | – | – | – | – | Average inhibition male (%) [1, 9]: 50.4%; % inhibition male (individual replicates) R1 [1, 10]: 69.1%; % inhibition male (individual replicates) R3 [1, 11]: 65.3%; % inhibition male (individual replicates) R4 [1, 12]: 65.1%; HitlevelM ([1]; 2µM, 24h preincubation): 3; Average inhibition female (%) [2, 9]: 11.1%; % inhibition female (individual replicates) R1 [2, 10]: 14.0%; % inhibition female (individual replicates) R3 [2, 11]: -5.8%; % inhibition female (individual replicates) R4 [2, 12]: 27.9%; HitlevelF ([2]; 2µM, 24h preincubation): 0

The next lines start with the compound.

Compound | IC50 [1, 7] [nM] | IC50 [2, 8] [nM] | Selectivity Ratio M [1] | HitlevelM ([1]; 2µM) | Selectivity ratio F [2] | HitlevelF ([2]; 2µM) | Tox50 (HepG2 cells) [µM] | Average inhibition male (%) [1, 3] [%] | % inhibition male (individual replicates) R1 [1, 4] [%] | % inhibition male (individual replicates) R3 [1, 5] [%] | % inhibition male (individual replicates) R4 [1, 6] [%] | Average inhibition female (%) [2, 3] [%] | % inhibition female (individual replicates) R1 [2, 4] [%] | % inhibition female (individual replicates) R3 [2, 5] [%] | % inhibition female (individual replicates) R4 [2, 6] [%] | also measured
Br.CC[C@H]1CN2CCc3cc(OC)c(OC)cc3[C@@H]2C[C@@H]1C[C@H]1NCCc2c1cc(OC)c(O)c2I [TCMDC-131829] | – | – | 7.59 | 4 | 21.58 | 4 | 6.35 | – | – | – | – | – | – | – | – | IC50 ([1]; Plasmodium falciparum, 24 h): 840 nM; inhibition at 2 µM ([1]; Plasmodium falciparum, read-out: % inhibition male (individual replicates) R1): 84.6%; inhibition at 2 µM ([1]; Plasmodium falciparum, read-out: % inhibition male (individual replicates) R2): 83.8%; inhibition at 2 µM ([1]; Plasmodium falciparum, read-out: % inhibition male (individual replicates) R3): 88.6%; inhibition at 2 µM ([1]; Plasmodium falciparum, read-out: % inhibition male (individual replicates) R4): 95.7%; inhibition at 2 µM ([1]; Plasmodium falciparum, read-out: Average inhibition male (%)): 88.2%; IC50 ([2]; Plasmodium falciparum, 24 h): 290 nM; inhibition at 2 µM ([2]; Plasmodium falciparum, read-out: % inhibition female (individual replicates) R1): 83.8%; inhibition at 2 µM ([2]; Plasmodium falciparum, read-out: % inhibition female (individual replicates) R2): 92.3%; inhibition at 2 µM ([2]; Plasmodium falciparum, read-out: % inhibition female (individual replicates) R3): 106%; inhibition at 2 µM ([2]; Plasmodium falciparum, read-out: % inhibition female (individual replicates) R4): 88.5%; inhibition at 2 µM ([2]; Plasmodium falciparum, read-out: Average inhibition female (%)): 92.8%
N=C(N)NCCN(Cc1ccccc1)c1ccc(Cl)cc1 [TCMDC-131838] | – | – | 72.58 | – | 7.49 | – | 48.68 | – | – | – | – | – | – | – | – | inhibition at 2 µM ([1]; Plasmodium falciparum, 2µM, 24h preincubation with gametocytes, average of replicates, read-out: Average inhibition male (%)): 98.3%; inhibition at 2 µM ([1]; Plasmodium falciparum, 2µM, 24h preincubation with gametocytes, replicate R1, read-out: % inhibition male (individual replicates) R1): 96.5%; inhibition at 2 µM ([1]; Plasmodium falciparum, 2µM, 24h preincubation with gametocytes, replicate R2, read-out: % inhibition male (individual replicates) R2): 98.5%; inhibition at 2 µM ([1]; Plasmodium falciparum, 2µM, 24h preincubation with gametocytes, replicate R3, read-out: % inhibition male (individual replicates) R3): 97.4%; inhibition at 2 µM ([1]; Plasmodium falciparum, 2µM, 24h preincubation with gametocytes, replicate R4, read-out: % inhibition male (individual replicates) R4): 101%; IC50 ([1]; Plasmodium falciparum, PfDGFA, 24 h incubation with gametocytes before induction, exflagellation readout): 670 nM; inhibition at 2 µM ([2]; Plasmodium falciparum, 2µM, 24h preincubation with gametocytes, average of replicates, read-out: Average inhibition female (%)): 61.5%; inhibition at 2 µM ([2]; Plasmodium falciparum, 2µM, 24h preincubation with gametocytes, replicate R1, read-out: % inhibition female (individual replicates) R1): 40.2%; inhibition at 2 µM ([2]; Plasmodium falciparum, 2µM, 24h preincubation with gametocytes, replicate R2, read-out: % inhibition female (individual replicates) R2): 88.5%; inhibition at 2 µM ([2]; Plasmodium falciparum, 2µM, 24h preincubation with gametocytes, replicate R3, read-out: % inhibition female (individual replicates) R3): 50%; inhibition at 2 µM ([2]; Plasmodium falciparum, 2µM, 24h preincubation with gametocytes, replicate R4, read-out: % inhibition female (individual replicates) R4): 67.4%; IC50 ([2]; Plasmodium falciparum, PfDGFA, 24 h incubation with gametocytes before induction, female gamete readout): 6500 nM
COc1cc2nc(NCCCN3CCCCC3)nc(NCc3ccccc3)c2cc1OC [TCMDC-132012] | 1890 | 6340 | 5.75 | 3 | 1.71 | 4 | 10.87 | 71.6 | 87.9 | 87.5 | 91.8 | 56.5 | 53.1 | 57.0 | 64.1 | –
